Here are results for 30 compounds from patent US10472315B2, “Inhibitors of methionine aminopeptidases and methods of treating disorders” (THE JOHNS HOPKINS UNIVERSITY, priority 2009, dated 2019).

The target of one assay is T1, MtMetAP1a (Mycobacterium tuberculosis, UniProt P9WK21).
T1 construct: made in house; host or cells: E. coli BL21 (DE3)
In words: Coupled methionine-proline aminopeptidase assay (Met-Pro-pNA), IC50 determination. The settings on record: for inhibition of MtMetAP1a, in words: statement on MtMetAPs / both enzymes. The assay is classed as biochemical, M. tuberculosis. On the procedure: (§1) Determination of IC50 of Inhibitors of MtMetAPs and Clustering of Structural Classes of Inhibitors (ASDI-ISIS)
(§2) We determined the concentration needed for 50% inhibition in 96-well plates at final concentrations ranging from 100 μM-300 nM (for 81 compounds that were available in larger quantities). The total reaction volume was 50 μL and each reaction contained each MtMetAP1 respectively and 40 mM Hepes buffer (p.H 7.5), 100 mM NaCl, 100 μg/mL BSA, 0.1 U/mL ProAP, 1.5 μM CoCl2, 600 μM substrate (Met-Pro-pNA). The enzyme was pre-incubated with compounds for 20 min at room temperature followed by addition of substrate. The reaction was incubated at room temperature for 30 min and monitored at 405 nm on a spectrophotometer. The background hydrolysis was corrected and the data was fitted against the sigmoidal-dose response (variable slope) equation using GraphPad Prism software.

The next assay has as its target T2, MtMetAP1c (Mycobacterium tuberculosis, UniProt P9WK19).
T2 construct: made in house; host or cells: E. coli BL21
The description is as above. The assay is classed as biochemical, M. tuberculosis. The settings on record: for inhibition of MtMetAP1c, in words: statement on MtMetAPs / both enzymes. On the procedure:
as §1, §2

The next assay relates to M. tuberculosis H37Rv. In words: Minimum inhibitory concentration in replicating M. tuberculosis. The assay is classed as cell-based. The settings on record: for MIC: Mycobacterium tuberculosis, H37RV, 336 h, read-out: M.I.C. (μg/mL) M. tuberculosis.
For assay [1], the system named is Aged-cultured M. tuberculosis H37Ra. Put plainly: microbe, parasite or virus in culture. In kind it is cell-based. The settings on record: for MIC: Mycobacterium tuberculosis, H37RA, read-out: M.I.C. (μg/mL) Aged-cultured M. tuberculosis.
[2] abbreviates: recombinant enzyme, 1.5 μM CoCl2, 600 μM Met-Pro-pNA, read-out: IC50 (μM) MtMetAP1a.

Values after ≈ are worked out from the molar mass of the structure shown. Values joined by “and” are separate entries in the source; they are usually repeats but may differ in a detail not shown here. Equal values may be shown once. “Also recorded” adds a separate entry of the source. Read-outs that look alike come from different tables or passages of the source.

T2 sequence (P9WK19 whole entry): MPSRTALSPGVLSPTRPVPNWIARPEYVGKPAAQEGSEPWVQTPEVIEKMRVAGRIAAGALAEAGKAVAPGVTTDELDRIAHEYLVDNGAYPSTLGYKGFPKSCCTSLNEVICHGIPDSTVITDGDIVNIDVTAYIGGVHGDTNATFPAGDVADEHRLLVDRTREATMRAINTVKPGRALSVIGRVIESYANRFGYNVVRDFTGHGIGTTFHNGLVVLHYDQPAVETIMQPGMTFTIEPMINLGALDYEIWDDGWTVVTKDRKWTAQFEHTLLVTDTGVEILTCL
T1 sequence (P9WK21 whole entry): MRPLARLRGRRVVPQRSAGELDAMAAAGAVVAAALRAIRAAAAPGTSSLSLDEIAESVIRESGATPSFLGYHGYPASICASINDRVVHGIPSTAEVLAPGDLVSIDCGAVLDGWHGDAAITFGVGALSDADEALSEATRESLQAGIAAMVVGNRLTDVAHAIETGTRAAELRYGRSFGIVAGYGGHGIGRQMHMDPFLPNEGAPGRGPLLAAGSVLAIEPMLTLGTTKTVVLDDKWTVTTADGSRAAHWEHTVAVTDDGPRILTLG

For `O=C1C=CC(=O)c2c(O)cccc21` [Compound 23], the IC50 on MtMetAP1a (setting [2]) was more than 50 µM.
Take `O=C1C(Br)=C(Br)C(=O)c2ccccc21` [Compound 20, 2,3-dibromo-1,4-naphthoquinone]: the IC50 at MtMetAP1a (setting [2]) was ~1 µM and 1.14 µM; at MtMetAP1c (recombinant enzyme, 1.5 μM CoCl2, 600 μM Met-Pro-pNA, read-out: IC50 (μM) MtMetAP1c), ~1 µM and 0.71 µM. Besides, in the assay with M. tuberculosis H37Rv, the MIC is 10 to 25 µg/mL (≈ 31.7 to 79.1 µM). Besides, the “effectiveness against the aged-cultured form compared with the replicating form” value in assay [1] was “equally effective”.
Take `O=C1C(Cl)=C(Nc2cccc(C(F)(F)F)c2)C(=O)c2ccccc21` [Compound 12]: the IC50 on MtMetAP1a (setting [2]) is more than 30 µM.
Same read-out and setting: next, `O=C1C(Cl)=C(N2CCN(c3ccc(Cl)c(Cl)c3)CC2)C(=O)c2ccccc21` [Compound 9]: more than 100 µM.
Regarding `Oc1c(Br)cc(Cl)c2cccnc12` [Compound 69, 7-bromo-5-chloroquinolin-8-ol], on MtMetAP1a, the “inhibition of MtMetAP1a, in words” value is “low micromolar range; also recorded: most potent”. The “inhibition of MtMetAP1c, in words” value at MtMetAP1c was “low micromolar range; also recorded: most potent”.
For `O=C1C(Oc2ccc(F)cc2)=C(Oc2ccc(F)cc2)C(=O)c2ccccc21` [Compound 21], on MtMetAP1a (setting [2]), the IC50 worked out at 4.93 ± 0.2 µM. In addition, in the assay on M. tuberculosis H37Rv, the “increase in MIC values relative to compounds 4 and 20” value is given as “about a two-fold increase”; the MIC is more than 25 µg/mL.
As for `O=C1C(Cl)=C(Nc2cccc(F)c2)C(=O)c2ccccc21` [Compound 13], the IC50 on MtMetAP1a (setting [2]) is more than 30 µM.
In the case of `ON=CNc1nc2c(s1)CCOc1cc3c(cc1-2)OCO3` [Amidoxime 58], the IC50 worked out at 0.76 µM at MtMetAP1a (read-out: inhibitor of MtMetAP1a (potency in text)) and 0.06 µM at MtMetAP1c (read-out: inhibitor of MtMetAP1c (potency in text)). For the same compound, the “improvement over the lead-like hit 48, MtMetAP1a” value at MtMetAP1a (relative to amidoxime 48) worked out at 48 fold. Moreover, the “inhibition of MtMetAP1a, in words” value at MtMetAP1a is given as “very potent”. Also, the “improvement over the lead-like hit 48, MtMetAP1c” value on MtMetAP1c (relative to amidoxime 48) was 7 fold. The “inhibition of MtMetAP1c, in words” value on MtMetAP1c is “very potent”.
Consider `O=C1C(Cl)=C(N2C(=O)c3c(Cl)c(Cl)c(Cl)c(Cl)c3C2=O)C(=O)c2ccccc21` [Compound 2], for which, on MtMetAP1a (setting [2]), the IC50 stood at 4 ± 0.3 µM. For the same compound, in the assay with M. tuberculosis H37Rv, the “increase in MIC values relative to compounds 4 and 20” value is listed as “about a two-fold increase”; the MIC is 25 µg/mL (≈ 52.6 µM). Further, the MIC in assay [1] was determined as 23.8 µg/mL (≈ 50.1 µM).
With `Cc1ccc(Cl)cc1N1CCN(C2=C(Cl)C(=O)c3ccccc3C2=O)CC1` [Compound 10], on MtMetAP1a (setting [2]), the IC50 is more than 100 µM.
For the compound `CCCN(CCC)C1=C(Cl)C(=O)c2ccccc2C1=O` [Compound 26], the IC50 at MtMetAP1a (setting [2]) is more than 50 µM.
Still for that read-out and setting: next, `Cc1cc(C)cc(NC2=C(Cl)C(=O)c3ccccc3C2=O)c1` [Compound 19]: 13.9 ± 1 µM; `O=C1C(Cl)=C(Nc2ccccc2)C(=O)c2ccccc21` [Compound 16]: more than 50 µM; `O=C1C(Cl)=C(N2CCN(c3cccc(Cl)c3)CC2)C(=O)c2ccccc21` [Compound 8]: more than 100 µM.
In the case of `COC(=O)c1ccc(NC2=C(Cl)C(=O)c3ccccc3C2=O)cc1` [Compound 14], the IC50 on MtMetAP1a (setting [2]) is more than 30 µM.
In the case of `O=C1C(Cl)=C(N2CCCCC2)C(=O)c2ccccc21` [Compound 3], at MtMetAP1a (setting [2]), the IC50 amounted to 8 ± 1.3 µM. Besides, the MIC in the assay on M. tuberculosis H37Rv is more than 25 µg/mL; in assay [1], more than 27.6 µg/mL.
Consider `O=C1C(Cl)=C(Oc2ccc(F)cc2)C(=O)c2ccccc21` [Compound 22], for which the IC50 on MtMetAP1a (setting [2]) amounted to 7.58 ± 0.28 µM. In addition, in the assay with M. tuberculosis H37Rv, the “increase in MIC values relative to compounds 4 and 20” value is recorded as “about a two-fold increase”; the MIC was more than 25 µg/mL.
Turning to `O=C1C=C(O)C(=O)c2ccccc21` [Compound 25], the IC50 on MtMetAP1a (setting [2]) was more than 50 µM.
Take `COc1ccc2c(c1)-c1nc(NC=NO)sc1CC2` [Amidoxime 49, N′-hydroxy-N-(8-methoxy-4,5-dihydronaphtho[1,2-d]thiazol-2-yl)formimidamide]: the “potency against MtMetAP1c when compared to 48” value on MtMetAP1c (relative to amidoxime 48) was “two times less potent”.
`NC1=C(Cl)C(=O)c2ccccc2C1=O` [Compound 5]: on MtMetAP1a (setting [2]), the IC50 is more than 100 µM.
The same measure, in the same setting: next, `CN(C)c1ccc(NC2=C(Cl)C(=O)c3ccccc3C2=O)cc1` [Compound 15]: more than 30 µM; `O=C1C(Cl)=C(NCc2ccc(Cl)cc2)C(=O)c2ccccc21` [Compound 6]: more than 100 µM; `O=C(NC1=C(Cl)C(=O)c2ccccc2C1=O)c1cc(C(F)(F)F)cc(C(F)(F)F)c1` [Compound 27]: more than 50 µM.
Still for that read-out and setting: next, `CN1CCN(C2=C(Cl)C(=O)c3ccccc3C2=O)CC1` [Compound 7]: more than 100 µM; `CC1=CC(=O)c2c(O)cccc2C1=O` [Compound 24]: more than 50 µM; `CC1=CC(=O)c2ccccc2C1=O` [Compound 29]: more than 50 µM.
On the same count and under the same terms, next, `Cc1cccc(NC2=C(Cl)C(=O)c3ccccc3C2=O)c1` [Compound 17]: 18.6 ± 6.1 µM; `CC1=C(C/C=C(\C)CCCC(C)CCCC(C)C)C(=O)c2ccccc2C1=O` (centres unmarked) [Compound 28]: more than 50 µM; `COc1ccc(NC2=C(Cl)C(=O)c3ccccc3C2=O)cc1` [Compound 18]: 15.9 ± 0.6 µM.
Consider `O=C1C(Cl)=C(Cl)C(=O)c2ccccc21` [Compound 4, 2,3-dichloro-1,4-naphthoquinone], for which the IC50 turned out to be 3.3 ± 0.3 µM against MtMetAP1a and 6.6 ± 1.2 µM at MtMetAP1c. In addition, in the assay with M. tuberculosis H37Rv, the “M.I.C. (μg/mL) M. tuberculosis” value came out at 10 µg/mL. Further, the MIC is 10 µg/mL (≈ 44 µM) in the assay with M. tuberculosis H37Rv and 5.7 to 11.4 µg/mL (≈ 25.1 to 50.2 µM) in assay [1]. For the same compound, the “effectiveness against the aged-cultured form compared with the replicating form” value in assay [1] is on record as “equally effective”.
